The values that follow come from ChEMBL document CHEMBL5678818, “Discovery of potent SOS1 inhibitors that block RAS activation via disruption of the RAS-SOS1 interaction” (Proc Natl Acad Sci U S A, 2019).

Experiment [1] deals with GTPase KRas (Homo sapiens) (UniProt P01116). As to the kind of experiment: Binding affinity to N-terminal His10-tagged wild-type human KRAS (1 to 169 residues) expressed in Escherichia coli assessed as binding at 1:1 stoichiometry at 100 uM incubated for 1 hr by native MS analysis.
Experiment [2] concerns the target Activin receptor type-1-like (Homo sapiens) (UniProt P37023). In words: Inhibition of ACVRL1 (unknown origin) assessed as residual activity at 100 nM by KINOMEscan analysis relative to control.
Experiment [3] addresses T1, Calcium/calmodulin-dependent protein kinase type IV (Homo sapiens) (UniProt Q16566).
T1 sequence (whole entry): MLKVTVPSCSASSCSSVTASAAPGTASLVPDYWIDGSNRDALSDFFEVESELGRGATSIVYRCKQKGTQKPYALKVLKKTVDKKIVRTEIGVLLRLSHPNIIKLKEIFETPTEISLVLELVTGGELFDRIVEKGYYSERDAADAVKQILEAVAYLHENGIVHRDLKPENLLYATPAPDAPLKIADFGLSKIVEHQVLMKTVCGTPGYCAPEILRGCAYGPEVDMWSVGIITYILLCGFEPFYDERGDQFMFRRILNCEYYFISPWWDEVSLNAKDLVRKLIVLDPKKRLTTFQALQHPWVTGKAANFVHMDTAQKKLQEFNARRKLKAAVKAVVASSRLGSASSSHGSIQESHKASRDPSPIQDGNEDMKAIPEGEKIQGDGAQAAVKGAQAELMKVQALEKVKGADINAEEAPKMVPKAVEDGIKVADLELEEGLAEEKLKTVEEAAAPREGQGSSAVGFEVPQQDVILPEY
In words: Inhibition of CAMK4 (unknown origin) assessed as residual activity at 100 nM by KINOMEscan analysis relative to control.

Experiment [4] has as its target T2, Serine/threonine-protein kinase Chk1 (Homo sapiens) (UniProt O14757).
T2 sequence (whole entry): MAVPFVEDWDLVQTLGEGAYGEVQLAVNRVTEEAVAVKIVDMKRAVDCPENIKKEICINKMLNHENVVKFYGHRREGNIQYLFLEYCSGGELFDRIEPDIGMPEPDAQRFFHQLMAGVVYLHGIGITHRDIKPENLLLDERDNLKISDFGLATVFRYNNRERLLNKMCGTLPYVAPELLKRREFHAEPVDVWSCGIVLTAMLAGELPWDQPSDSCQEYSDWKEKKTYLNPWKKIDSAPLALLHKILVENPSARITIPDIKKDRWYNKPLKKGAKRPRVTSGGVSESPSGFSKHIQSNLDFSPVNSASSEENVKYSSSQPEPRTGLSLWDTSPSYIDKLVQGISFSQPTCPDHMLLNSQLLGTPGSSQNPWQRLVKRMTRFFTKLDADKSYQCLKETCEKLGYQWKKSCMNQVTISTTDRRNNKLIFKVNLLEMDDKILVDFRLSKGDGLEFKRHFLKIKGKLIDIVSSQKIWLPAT
As to the kind of experiment: Inhibition of CHEK1 (unknown origin) assessed as residual activity at 100 nM by KINOMEscan analysis relative to control.

The target of experiment [5] is Citron Rho-interacting kinase (Homo sapiens) (UniProt O14578). As to the kind of experiment: Inhibition of CIT (unknown origin) assessed as residual activity at 100 nM by KINOMEscan analysis relative to control.
In experiment [6] the test system is Epidermal growth factor receptor (Homo sapiens), P00533 [G719S]. As to the kind of experiment: Inhibition of EGFR G719S mutant (unknown origin) assessed as residual activity at 100 nM by KINOMEscan analysis relative to control.
For experiment [7], the system named is Epidermal growth factor receptor (Homo sapiens), P00533 [L861Q]. As to the kind of experiment: Inhibition of EGFR L861Q mutant (unknown origin) assessed as residual activity at 100 nM by KINOMEscan analysis relative to control.
Experiment [8] deals with Insulin-like growth factor 1 receptor (Homo sapiens) (UniProt P08069). In words: Inhibition of IGF1R (unknown origin) assessed as residual activity at 100 nM by KINOMEscan analysis relative to control.
In experiment [9] the test system is Mast/stem cell growth factor receptor Kit (Homo sapiens), P10721 [V559D,V654A]. In words: Inhibition of KIT V559D/V654A mutant (unknown origin) assessed as residual activity at 100 nM by KINOMEscan analysis relative to control.
Experiment [10] concerns the target MAP kinase-interacting serine/threonine-protein kinase 2 (Homo sapiens) (UniProt Q9HBH9). In words: Inhibition of MKNK2 (unknown origin) assessed as residual activity at 100 nM by KINOMEscan analysis relative to control.
For experiment [11], the target named is Serine/threonine-protein kinase 24 (Homo sapiens) (UniProt Q9Y6E0). As to the kind of experiment: Inhibition of MST3 (unknown origin) assessed as residual activity at 100 nM by KINOMEscan analysis relative to control.
The target of experiment [12] is BDNF/NT-3 growth factors receptor (Homo sapiens) (UniProt Q16620). In words: Inhibition of TRKB (unknown origin) assessed as residual activity at 100 nM by KINOMEscan analysis relative to control.

Active and inactive are the calls of the source. The rule behind the calls is not given here.

Regarding `COc1cc2ncnc(N[C@H](C)c3cccc4ccccc34)c2cc1OC`, the result in experiment [1] was inactive. In addition, the Activity amounted to 82% in [2]; 100% in experiment [3]; 100% in experiment [4]; 83% in [5]; 96% in experiment [6]; 95% in experiment [7]. The Activity was 82% in experiment [8]; 100% in [9]; 89% in experiment [10]; 99% in [11]; 96% in [12].
